From patent publication US8192962B2, “Processes for detecting toxic substances” (Daikin Industries, Ltd., priority 2001, dated 2012)

Test system: Metabolism protein genes
Experiment: DNA chip mRNA expression in yeast, metabolism protein genes (Table 7)
Format: cell-based, Saccharomyces cerevisiae S288C
Protocol: Yeast (Saccharomyces cerevisiae S288C (α SUC2mal mel gap2 CUP1)) were incubated at 25° C. on YPD medium (yeast extract 1%, polypepton 2%, glucose 2%). One of toxic chemical substances was added to the cells at logarithmic growth phase, and the cells were further incubated for two hours. Cells were cultured without any chemical substance in the same condition, and were used as control. Concentrations of the chemical substances were defined to inhibit the growth of the yeast but not lead to death.
After completion of the incubation, the culture was centrifuged to collect the cells. To the cells, sodium acetate buffer (50 mM sodium acetate, 10 mM EDTA, 1% SDS) was added, and the mixture was shaken at 65° C. for five minutes, followed by returning to room temperature, and obtaining the supernatant, of which the procedures were repeated two times. To the supernatant, ½ amount of a solution of phenol/chloroform was added, and the mixture was centrifuged to give a supernatant, which was added with an equal amount of chloroform, and the mixture was centrifuged to give a supernatant. To the supernatant, an equal amount of isopropanol containing 0.3 M sodium acetate was added, and the mixture was allowed to stand at room temperature for 30 minutes, after which the mixture was centrifuged to give a sediment of the whole RNAs. Seventy % ethanol was added to the sediment, and the mixture was again centrifuged to give a sediment, which was then dried and dissolved in water. mRNA was isolated from the whole RNAs as followings. In view of the fact that a poly A chain is attached to the 3′ terminus of mRNA, a polynucleotide having a poly T structure which was immobilized on the surface of latex beads was used to trap the mRNA, and then the mRNA was washed and eluted with spine column (Oligotex-dT30<Super>mRNA Purification Kit, Takara). Reverse transcription of the mRNA was conducted with a reverse transcriptase (Super Script II Reverse Transcriptase; catalogue No. 18064-014, GibcoBRL) using fluorescence-labeled nucleotides to give cDNAs that were introduced with Cy3-dUTP or Cy5-dUTP during the reverse transcription.
The labeled cDNAs were dissolved in TE buffer (10mM Tris-HCl/1 mM EDTA, pH8.0), and the solution was dropped on the DNA chip containing the whole genes of yeast (DNA Chip Research Inc. Japan) so that the cDNAs were hybridized on the DNA chip at 65° C. for over 12 hours. The fluoresces intensity of the DNA chip was read with a scanner, and the ratio relative to the fluorescence intensity resulting from the absence of chemical substance was estimated as the following, which is shown in Tables 1 to 9: […]

C[S+](C)[O-] [(15), dimethylsulfoxide]
level of expressed mRNA in the presence/in the absence of chemical substance (yeast gene YER081W): 0.5
The level of expressed mRNA in the presence of chemical substance/The level of expressed mRNA in the absence of chemical substance (yeast gene YER096W): 1.4
level of expressed mRNA in the presence/in the absence of chemical substance (yeast gene YER120W): 1.5
The level of expressed mRNA in the presence of chemical substance/The level of expressed mRNA in the absence of chemical substance (yeast gene YER178W): 1.8
level of expressed mRNA in the presence/in the absence of chemical substance (yeast gene YFL011W): 1.7
The level of expressed mRNA in the presence of chemical substance/The level of expressed mRNA in the absence of chemical substance (yeast gene YFL014W): 6.3
The level of expressed mRNA in the presence of chemical substance/The level of expressed mRNA in the absence of chemical substance (yeast gene YFL030W): 1.1
The level of expressed mRNA in the presence of chemical substance/The level of expressed mRNA in the absence of chemical substance (yeast gene YFL056C): 5.0
The level of expressed mRNA in the presence of chemical substance/The level of expressed mRNA in the absence of chemical substance (yeast gene YFR015C): 0.4
The level of expressed mRNA in the presence of chemical substance/The level of expressed mRNA in the absence of chemical substance (yeast gene YFR047C): 0.6
The level of expressed mRNA in the presence of chemical substance/The level of expressed mRNA in the absence of chemical substance (yeast gene YGL001C): 0.9
level of expressed mRNA in the presence/in the absence of chemical substance (yeast gene YGL012W): 0.6
The level of expressed mRNA in the presence of chemical substance/The level of expressed mRNA in the absence of chemical substance (yeast gene YGL022W): 4.0
The level of expressed mRNA in the presence of chemical substance/The level of expressed mRNA in the absence of chemical substance (yeast gene YGL104C): 0.9
level of expressed mRNA in the presence/in the absence of chemical substance (yeast gene YGL115W): 0.7
The level of expressed mRNA in the presence of chemical substance/The level of expressed mRNA in the absence of chemical substance (yeast gene YGL126W): 2.8
The level of expressed mRNA in the presence of chemical substance/The level of expressed mRNA in the absence of chemical substance (yeast gene YGL154C): 0.8
level of expressed mRNA in the presence/in the absence of chemical substance (yeast gene YGL205W): 2.0
The level of expressed mRNA in the presence of chemical substance/The level of expressed mRNA in the absence of chemical substance (yeast gene YGL248W): 1.8
The level of expressed mRNA in the presence of chemical substance/The level of expressed mRNA in the absence of chemical substance (yeast gene YGL253W): 0.8
The level of expressed mRNA in the presence of chemical substance/The level of expressed mRNA in the absence of chemical substance (yeast gene YGR037C): 1.5
The level of expressed mRNA in the presence of chemical substance/The level of expressed mRNA in the absence of chemical substance (yeast gene YGR060W): 1.4
level of expressed mRNA in the presence/in the absence of chemical substance (yeast gene YGR096W): 0.9
level of expressed mRNA in the presence/in the absence of chemical substance (yeast gene YGR191W): 1.5
The level of expressed mRNA in the presence of chemical substance/The level of expressed mRNA in the absence of chemical substance (yeast gene YGR194C): 0.6
level of expressed mRNA in the presence/in the absence of chemical substance (yeast gene YGR204W): 1.6
level of expressed mRNA in the presence/in the absence of chemical substance (yeast gene YGR288W): 0.8
level of expressed mRNA in the presence/in the absence of chemical substance (yeast gene YHR025W): 2.1
The level of expressed mRNA in the presence of chemical substance/The level of expressed mRNA in the absence of chemical substance (yeast gene YHR037W): 1.1
The level of expressed mRNA in the presence of chemical substance/The level of expressed mRNA in the absence of chemical substance (yeast gene YHR092C): 0.2
The level of expressed mRNA in the presence of chemical substance/The level of expressed mRNA in the absence of chemical substance (yeast gene YHR111W): 1.1
level of expressed mRNA in the presence/in the absence of chemical substance (yeast gene YHR123W): 2.3
The level of expressed mRNA in the presence of chemical substance/The level of expressed mRNA in the absence of chemical substance (yeast gene YHR137W): 2.8
The level of expressed mRNA in the presence of chemical substance/The level of expressed mRNA in the absence of chemical substance (yeast gene YHR174W): 2.0
The level of expressed mRNA in the presence of chemical substance/The level of expressed mRNA in the absence of chemical substance (yeast gene YHR176W): 1.5
The level of expressed mRNA in the presence of chemical substance/The level of expressed mRNA in the absence of chemical substance (yeast gene YHR190W): 1.3
level of expressed mRNA in the presence/in the absence of chemical substance (yeast gene YHR210C): 0.5
level of expressed mRNA in the presence/in the absence of chemical substance (yeast gene YIL006W): 1.5
The level of expressed mRNA in the presence of chemical substance/The level of expressed mRNA in the absence of chemical substance (yeast gene YIL033C): 1.0
The level of expressed mRNA in the presence of chemical substance/The level of expressed mRNA in the absence of chemical substance (yeast gene YIL045W): 0.6
The level of expressed mRNA in the presence of chemical substance/The level of expressed mRNA in the absence of chemical substance (yeast gene YIL107C): 1.0
The level of expressed mRNA in the presence of chemical substance/The level of expressed mRNA in the absence of chemical substance (yeast gene YIL154C): 4.3
The level of expressed mRNA in the presence of chemical substance/The level of expressed mRNA in the absence of chemical substance (yeast gene YIL155C): 1.4
The level of expressed mRNA in the presence of chemical substance/The level of expressed mRNA in the absence of chemical substance (yeast gene YIL167W): 0.6
The level of expressed mRNA in the presence of chemical substance/The level of expressed mRNA in the absence of chemical substance (yeast gene YIR036C): 1.1
